Assays:
vascular ring = assay: Vessel ring bioassay of SNO-Hb preparations, with or without glutathione
Source text: Arterial red blood cells contain two physiologically important forms of hemoglobin: Hb(FeII)O2 and Hb(FeIII) (Antonini et al. (1971)). […] Such findings raise the possibility of functional consequences, perhaps influenced by the redox state of heme and its occupation by ligand.
Details of the vessel ring bioassay have been published (Stamler, J. S., et al., Proc. Natl. Acad. Sci. USA 89:444-448 (1992)). SNO-Hb(FeII)O2 preparations were synthesized with 10-fold excess S-nitrosocysteine (CYSNO) over Hb(FeII)O2 protein (2% borate, 0.5 mM EDTA, ˜15 min incubation), after which desalting was performed across Sephadex G-25 columns. CYSNO was synthesized in 0.5 N HCl, 0.5 mM EDTA and then neutralized (1:1) in 1 M phosphate buffer containing 0.5 mM EDTA. […] The latter was synthesized by treatment of Hb(FeII)O2 with excess ferricyanide, followed by desalting across G-25 columns. SNO-Hb concentrations were verified spectroscopically and the S-nitrosothiol content was determined by the method of Saville (Stamler, J. S., et al., Proc. Nat. Acad. Sci. USA 89:444-448 (1992)). The S-NO/tetramer stoichiometry for both SNO-Hb preparations was ˜2. Oxidation of the heme was undetectable by uv-spectrophotometric methods.

[1] = SNO-Hb decomposition and transnitrosation with glutathione; type: biochemical
Description: The decomposition of SNO-Hb(FeII) is further accelerated by the presence of excess glutathione. Within the dead time of our measurements (˜15 sec) a major fraction of SNO-Hb(FeII) was converted to GSNO.
Hbs in PBS (0.5 mM EDTA, pH 7.4) were incubated in air (oxy) or in a tonometer previously evacuated of O2 (deoxy). SNO-Hb(FeII)O2 decomposition was determined by the method of Saville (Saville, B., Analyst, 83:670-672 (1958)). Spontaneous decomposition of SNO-Hb(FeII) was followed spectrophotometrically by formation of Hb(FeII)NO. […] Rates of NO group transfer were too rapid to measure accurately by the standard methods used in this study.
Data are presented as the amount of GSNO formed relative to the starting SNO-Hb concentration.
Thiol/SNO-Hb exchange, forming GSNO, was verified chemically (Stamler, J. S., et al., Proc. Natl Acad. Sci. USA 89:444-448 (1992)) following trichloroacetic acid precipitation (n=5).

Sprague-Dawley rat = assay: Mean arterial pressure after femoral vein bolus of cell-free Hb and SNO-Hbs; type: in vivo
Source text: Systemic administration of cell-free Hb results in hypertensive responses which have been attributed to NO scavenging by the heme (Vogel, W. M., et al., Am. J. Physiol. 251:H413-H420 (1986); Olsen, S. B., et al., Circulation 93:329-332 (1996)). To determine if SNO-Hb is free of this adverse affect, and to explore if in vitro mechanisms of NO release extend to the in vivo circumstance, we compared responses to Hb and SNO-Hb infused as a bolus into the femoral vein of anesthetized rats. […] Thus, the profiles of these compounds in vivo closely resemble those seen in vitro (FIG. 4A). […] These changes in mean blood pressure of ˜10% are on the order of those that differentiate normotension from hypertension in man, and in the therapeutic range of some antihypertensive regimens. […] The bioactivity of SNO-Hb in blood, where S—NO/heme stoichiometries approach 1:50,000, is a dramatic illustration of the resistence of this NO-related activity to Hb(Fe) inactivation.
Administration of 2-200 nmol/kg Hb(FeII)O2 (as a bolus) into the femoral vein of a Sprague-Dawley rat is shown to increase mean arterial pressure in a dose-dependent manner. At 200 nmol/kg, mean arterial pressure increased by 25 mm Hg (20±3 mm Hg; n=4; P<0.05). Elevations in blood pressure reversed within 10-15 min. SNO-Hb(FeII)O2 infusions (over the same dose range) are shown to ameliorate Hb(FeII)O2-induced hypertension without causing overt changes in blood pressure. […] A fall in blood pressure was also seen with injection of erythrocytes containing SNO-Hb.
Rats were anesthetized by intraperitoneal injection of pentobarbital and the femoral arteries and veins accessed by local cut down. The artery was then cannulated and the blood pressure monitored continuously using a Viggo Spectramed pressure transducer attached to a Gould recorder. An IBM PC (DATA Q Codas) was used for data acquisition.

[2] = test system: rabbit thoracic aorta rings; assay: Oxygen-dependent rabbit aortic ring bioassay of Hb, SNO-Hb, GSNO and SNO-RBCs; details: <1% O2 (˜6 torr)

SNO-Hb(FeIII): S-nitrosohemoglobin with heme oxidized to FeIII
effect of added glutathione on the dose-response (vascular ring; glutathione 100 μM in bioassay chambers): potentiates the dose-response | activity in vascular ring bioassay (vascular ring; no glutathione): vasodilator | rate of NO group transfer to glutathione ([1]; SNO-Hb 100 μM, glutathione 10 mM, versus SNO-Hb(FeII)O2): more rapid | mean arterial pressure, post (Sprague-Dawley rat; after 200 nmol/kg (highest dose)): 74±6 mm Hg | time for blood pressure to normalize (Sprague-Dawley rat; after hypotensive response): 10 min | mean arterial pressure, pre (Sprague-Dawley rat; before 200 nmol/kg): 108±4 mm Hg | blood pressure response (Sprague-Dawley rat; bolus, femoral vein, anesthetized rat): elicited hypotensive responses

SNO-Hb(FeII): S-nitrosohemoglobin in the deoxy state
effect on vessel tone in T-structure [2]: modest effect on baseline tone | rate of RSNO decomposition (and transfer) ([1]; deoxy versus oxy state, PBS pH 7.4): much faster in the deoxy conformation

Reference: patent publication US6916471B2, “Red blood cells loaded with S-nitrosothiol and uses therefor” (Duke University, priority 1995, dated 2005)
